# “And” between values parts separate entries of the source, which are not always exact repeats. Equal values may be shown once. Read-outs that look alike come from different tables or passages of the source.
# How the values were obtained:
# [1] = test system: rust diseases of cereal crops; details: prior art; cited from earlier work
# [2] = test system: plants; details: prior art; cited from earlier work
# [3] = test system: stalk rust of wheat (Puccinia graminis); assay type: in vivo; details: in vivo
# [4] = Acute peroral toxicity for warm-blooded animals (LD50, LD90); assay type: in vivo, white mice; details: mouse, in vivo, po
# Procedure: (§1) Toxicity (LD50) was evaluated on males and females of white mice with peroral administration of the compounds. A portion of the test compound was mixed with the emulsifier Twin-20 and diluted with distilled water to the required working concentration. Administration of the preparation was effected by means of a metal probe and syringe directly into the stomach of test animals 2-3 hours after feeding. The tests were performed using several doses, 6 animals per each dose. Subsequent observation was effected for two weeks.
# [5] = test system: white mice; test: as above; assay type: in vivo; details: Table 14; female mice, peroral
# Procedure: as §1
# [6] = test system: stalk rust (Puccinia graminis f. tritici); assay type: in vivo
# [7] = test system: apple scab (Venturia inaequalis); details: in vivo
# [8] = test system: spores of Piricularia oryzae Cav.; assay type: cell-based
# [9] = test system: rust diseases of cereal crops; test: Activity against rust diseases of cereal crops (general statements); assay type: in vivo
# [10] = test system: wheat plants
# [11] = test system: stalk rust (Puccinia graminis f. tritici); assay type: in vivo; details: for Plant injury / Weight of 1,000 grains: Table 5, Moscow region, spring wheat Krasnozernaja, 3 sprayings
# [12] = test system: stalk rust (Puccinia graminis f. tritici); assay type: in vivo; details: Table 8, 3.0 kg/ha, 3 sprayings
# [13] = test system: yellow rust (P. striiformis); test: Efficiency of Aphos for USVS against yellow rust of wheat under field conditions (Table 8); assay type: in vivo; details: Taskent region, spring wheat Kzyl Shark, 3.0 kg/ha, 7.5 l/ha (Zineb 600), 3 sprayings
# [14] = test system: yellow rust of wheat; details: in vivo
# [15] = prior art; cited from earlier work
# [16] = Table 2, peroral, read-out: LD50 for white mice
# [17] = seeds after storage of grains for one year
# [18] = Krasnodar region, winter wheat Odesskaja-51, 7.5 l/ha (Zineb 3.2 kg/ha, 600 l/ha)
# [19] = Moscow region, spring wheat Krasnozernaja, 7.5 l/ha (Zineb 600)
Compound,activity against rust diseases [1],Percentage of injury lowered [3],"LD50 at 336 h [4, 16] [mg/kg]","Percentage of plants injured with rust, 1-st evaluation ([6]; in vivo) [%]","Percentage of plants injured with rust, 2-nd evaluation ([6]; in vivo) [%]","Weight of 1,000 grains ([6]; in vivo) [g]",Yield ([6]; in vivo) [c/ha],other results
Nc1ccc(S(=O)(=O)O)cc1 [anilate],low-efficiency,–,–,–,–,–,–,phytotoxicity [2]: phytotoxic
"CC(=O)OC(C(Cl)(Cl)Cl)P(=O)(Oc1ccccc1)Oc1ccccc1 (centres unmarked) [I, O,O-diphenyl-1-acetoxy-2,2,2-trichloroethylphosphonate]",–,98-100% and 70-97%,3500,0.5,7.0,18.7,17.40,"LD50 at 336 h ([4]; Table 14, female mice, peroral, read-out: LD50 with trusty limits): 3500 mg/kg; LD50 at 336 h ([4]; white mice, peroral administration, read-out: acute toxicity): ~3500 mg/kg; LD90 with trusty limits [5]: 8,200 mg/kg; protection of the apple tree from scab [7]: complete protection; efficiency of suppressing spores relative to kitacin [8]: about 40 times; superiority over kitacin in respect of activity [8]: about 50 times; Concentration causing 50% death of spores ([8]; 24 hours): 0.69 mg/L; period of fungicidal effect as compared to zineb ([9]; compared to zineb): longer period of a fungicidal effect as compared to zineb; protection of cereal crops from rust ([9]; even at a high level of infection): substantially completely protect cereal crops from rust; increase of the grain yield ([9]; high-volume spraying and USVS at 5 to 8 l/ha): up to 24 c/ha; efficiency compared with prior art anti-rust compositions ([9]; including zineb and hydroxycarboxine): superior over the prior art anti-rust fungicidal compositions including zineb and hydroxycarboxine; effect on yield of wheat grain ([10]; even at 8-times the increase of the dose): does not lower the yield of wheat grain; germination power [10, 17]: 99.5%; sprouting energy [10, 17]: 98.5%"
"CC1=C(C(=O)Nc2ccccc2)S(=O)(=O)CCO1 [Hydroxycarboxine, 1,4-dioxide-2,3-dihydro-6-methyl-5-phenylcarbamoyl-1,4-oxathiine]",efficient in killing rust fungi,–,–,–,–,–,–,"Plant injury ([11]; 1.5 kg/ha a.p.): 21.7%; Weight of 1,000 grains ([11]; 1.5 kg/ha a.p.): 12.0 g; Plant injury ([11]; 3.0 kg/ha a.p.): 16.1%; Weight of 1,000 grains ([11]; 3.0 kg/ha a.p.): 12.4 g; Yield ([11]; in vivo): 9.5 c/ha and 9.3 c/ha; efficiency under different agroclimatic conditions including frequent heavy rains [9]: low-effective"
CCC(=O)OC(C(Cl)(Cl)Cl)P(=O)(Oc1ccc(C)cc1)Oc1ccc(C)cc1 (centres unmarked) [XIX],–,100% and 66%,> 1000,0.5,8.0,18.9,14.60,–
CCCCCCC(=O)OC(C(Cl)(Cl)Cl)P(=O)(Oc1ccc(C)cc1)Oc1ccc(C)cc1 (centres unmarked) [XXI],–,97%,> 1000,0.5,7.5,18.2,14.00,–
CCCCCCC(=O)OC(C(Cl)(Cl)Cl)P(=O)(Oc1cccc(C)c1)Oc1cccc(C)c1 (centres unmarked) [XV],–,98% and 80%,> 1000,0.5,7.0,19.4,15.10,–
CCCC(=O)OC(C(Cl)(Cl)Cl)P(=O)(Oc1cc(C)cc(C)c1)Oc1cc(C)cc(C)c1 (centres unmarked) [XXVIII],–,73%,> 1000,0.5,7.0,16.6,11.60,–
CCC(=O)OC(C(Cl)(Cl)Cl)P(=O)(Oc1ccc(Cl)cc1)Oc1ccc(Cl)cc1 (centres unmarked) [XXXI],–,82% and 59%,> 1000,0.5,8.0,18.0,13.30,–
zinc ethylenebisdithiocarbamate [Zineb],high activity,–,–,–,–,–,–,"Weight of 1,000 grains ([6]; 3 kg/ha a.i., three sprayings): 14.0 g; Yield ([6]; 3 kg/ha a.i., three sprayings): 8.55 c/ha; Percentage of plants injured with rust, 1-st evaluation ([6]; 3 kg/ha a.i., 9 days after the first spraying, Moscow region, spring wheat Krasnozernaja): 0.5%; Percentage of plants injured with rust, 2-nd evaluation ([6]; 3 kg/ha a.i., two weeks after the third spraying, Moscow region, spring wheat Krasnozernaja): 12.0%; Grain yield [12, 18]: 34.5 c/ha; Percentage of injured plants [12, 18]: 16.0%; Weight of 1,000 grains [12, 18]: 35.6 g; Grain yield [12, 19]: 8.0 c/ha; Percentage of injured plants [12, 19]: 23.3%; Weight of 1,000 grains [12, 19]: 12.6 g; Grain yield [13]: 20.8 c/ha; Percentage of injured plants [13]: 14.4%; Weight of 1,000 grains [13]: 31.6 g; Percentage of injured plants, 17.05 [14]: 4% and 6% and 5%; Weight of 1,000 grains [14]: 35.4 g and 31.0 g and 34.8 g; Yield [14]: 411 and 351 and 412; efficiency with longer intervals between sprayings [14]: substantially reduced to zero; reduced the degree of injury as compared to the control [7]: 97%; efficiency under different agroclimatic conditions including frequent heavy rains [9]: low-effective; stability upon storage [15]: not stable upon storage"
CC(=O)OC(C(Cl)(Cl)Cl)P(=O)(Oc1cc(C)cc(C)c1)Oc1cc(C)cc(C)c1 (centres unmarked) [XXVI],–,84%,> 1000,0.5,10.0,16.7,11.70,–
